# Reference: PMC11206297, “Targeting NAD Metabolism: Rational Design, Synthesis and In Vitro Evaluation of NAMPT/PARP1 Dual-Target Inhibitors as Anti-Breast Cancer Agents” (Molecules, 2024)
# Like-named read-outs stand apart in the source and are kept apart here.
# Key:
# PARP1 [1] = biological target: T1, PARP1 (Homo sapiens, UniProt P09874); set-up: method as in PMID 18579376, PMID 18800822, PMID 24388690, PMID 28340412, PMID 36183505; conditions: in figure; cited from earlier work
# MDA-MB-468 cells [2] = assay: Wound scratch cell migration assay; format: cell-based; conditions: up to 48 h
# Method: MDA-MB-468 cells were plated in 6-well plates at a density of 5 × 10^5 cells/well and allowed to incubate overnight. A scratch was carefully generated in the cell monolayer using a 10 µL pipette tip. […] Images were acquired at 0, 12, 24, and 48 h time points to monitor and analyze the migration of cells over the specified intervals.
# MCF-7 = assay: MTT cell viability assay, MCF-7; format: cell-based; conditions: Homo sapiens, MCF7, 72 h, mean ± SEM, read-out: Cytotoxicity IC50 MCF-7
# Method: (§1) MDA-MB-468, MDA-MB-231, MCF-7, and MCF-10A cell lines were obtained from the National Collection of Authenticated Cell Culture, China. The cells were cultured in DMEM medium supplemented with 10% FBS and 1% penicillin/streptomycin, and maintained at 37 °C in a humidified atmosphere with 5% CO2.
# (§2) Cell viability was assessed using the MTT assay. Cells were seeded at a density of 3 × 10^3 cells per well in a 96-well plate and treated with various concentrations (0.05, 0.2, 0.8, 3.2, 6.4, 12.8 µM) of the compounds for 72 h. After incubation, 100 µL of MTT solution (0.5 mg/mL) was added to each well and further incubated for 4 h. The resulting formazan crystals were dissolved in 150 µL of DMSO, and the absorbance was measured at 570 nm using a microplate reader.
# MDA-MB-231 = assay: MTT cell viability assay, MDA-MB-231; format: cell-based; conditions: Homo sapiens, 72 h, mean ± SEM, read-out: Cytotoxicity IC50 MDA-MB-231
# Method: as §1, §2
# [3] = MTT cell viability assay, MCF-10A normal breast epithelial cells; format: cell-based, human; conditions: human, MCF-10A normal breast epithelial cells; MCF-10A; mean ± SEM; read-out: Cytotoxicity IC50
# Method: as §1, §2
# MCF-10A = assay: as above; format: cell-based, human; conditions: for viability at 3 µM: Homo sapiens, 72 h, MCF-10A, mean ± SEM, read-out: Cell Survival Rate; for selectivity of cytotoxic activity between breast cancer cells and normal cells (MCF-10A): comparison of Tables 2 and 3
# Method: as §1, §2
# MDA-MB-468 cells [4] = assay: Cellular NAD level determination (NAD+/NADH WST-8 kit); format: cell-based
# Method: According to the manufacturer’s instructions, an NAD^+/NADH Assay kit with WST-8 (Beyotime, China) was used to measure the intracellular NAD level. The cells collected by centrifugation were added to NAD^+/NADH lysis buffer to obtain a cell lysate. After adding […] working solution, the lysate was incubated at 37 °C for 10 min, and then followed by the addition of color-developing solution. The total concentration of NADH and NAD can be measured by detecting the absorbance at 450 nm. To measure the concentration of NADH, the cell lysate was incubated at 60 °C for 30 min before adding […] working solution. Finally, the NAD content is obtained by the subtraction [NAD^+] = [NADH + NAD^+] − [NADH].
# MDA-MB-468 = assay: MTT cell viability assay, MDA-MB-468; format: cell-based; conditions: Homo sapiens, 72 h, mean ± SEM, read-out: Cytotoxicity IC50 MDA-MB-468
# Method: as §1, §2
# MDA-MB-468 cells [5] = assay: Western blot of BCL2; format: cell-based; conditions: 24 h
# Method: (§3) Cells were then lysed using RIPA buffer supplemented with protease and phosphatase inhibitors. Protein concentrations were determined using the BCA Protein Assay Kit (Thermo Fisher Scientific^TM, Waltham, MA, USA). Equal amounts of protein (20–30 µg) were separated by SDS-polyacrylamide gel electrophoresis and transferred to a polyvinylidene fluoride (PVDF) membrane. The membrane was blocked with 5% milk in PBS before incubation with primary antibodies. Primary antibodies against γ-H2AX (Cell Signaling Technology™, Danvers, MA, USA), BCL2 (Abcam™, Cambridge, UK), and β-actin (Proteintech™, Rosemont, IL, USA) were used. After overnight incubation at 4 °C, membranes were washed and incubated with HRP-conjugated secondary antibodies for 1 h. Protein bands were visualized using ECL reagents (Labgic Technology^TM, Beijing, China).
# MDA-MB-468 cells [6] = assay: NMN rescue of cytotoxicity; format: cell-based; conditions: 200 μM NMN
# Text: NMN is the direct product of the NAMPT-catalyzed reaction. Excessive NMN can counteract the inhibitory effect of NAMPT inhibition. […] The reversal of DDY02’s efficacy by NMN underscores the compound’s mechanism of action and confirms the critical role of NAMPT inhibition in mediating its therapeutic effects. This observation also emphasizes the potential of NMN as a modulator in therapeutic scenarios involving NAMPT-targeted treatments.
# MDA-MB-468 cells [7] = assay: Western blot of γ-H2AX; format: cell-based; conditions: 24 h
# Method: as §3
# MDA-MB-468 cells [8] = assay: Colony formation (clonogenic) assay; format: cell-based; conditions: MDA-MB-468, 7 days
# Method: MDA-MB-468 cells were plated in 6-well plates at a density of 500 cells/well and allowed to grow for 7 days to promote colony formation. Following the incubation period, cells were washed with PBS, fixed in methanol for 15 min, and stained with 1% crystal violet for 1 h. Subsequently, colonies were imaged and counted.
# MDA-MB-468 cells [9] = assay: Comet assay (DNA damage); format: cell-based; conditions: 24 h, several concentrations
# Method: The comet assay was conducted under alkaline conditions using the Comet Assay Kit (Beyotime, Shanghai, China) following the manufacturer’s guidelines. […] This mixture was spread onto microscope slides and immersed in lysis solution for 1 h. Electrophoresis was carried out in a horizontal apparatus at 25 V and 300 mA. After electrophoresis, slides were stained with propidium iodide (PI) for DNA visualization, and images were captured using a fluorescence inverted microscope.
# MDA-MB-468 cells [10] = assay: Cell cycle analysis (PI staining, flow cytometry); format: cell-based; conditions: 48 h, several concentrations
# Method: Cell cycle distribution was determined using a DNA Content Quantitation Assay Kit (Solarbio, China). MDA-MB-468 cells were seeded in six-well plates and treated with various […]
# treatment, cells were harvested, ﬁxed in 70% ethanol at 4°C overnight, and washed with PBS.
# Cells were then incubated with RNase (100 µL) at 37°C for 30 minutes followed by propidium iodide (PI) staining (400 µL, 30 minutes, 4°C in the dark). Cell cycle distribution was analyzed using an Accuri C6 Plus ﬂow cytometer (BD Biosciences, CA) and data were processed using […]
# Figure S5. DDY02 induced cell cycle of MDA-MB-468 cells arrest in the G1 phase.
# (1 picture or pasted object on this page, not shown here)
# NAMPT = NAMPT (Homo sapiens, UniProt P43490); assay: NAMPT enzymatic inhibition assay (fluorescence, coupled NMNAT/alcohol dehydrogenase); format: biochemical; conditions: mean ± SD of at least two independent experiments in duplicate
# Chain of NAMPT (P43490 whole entry): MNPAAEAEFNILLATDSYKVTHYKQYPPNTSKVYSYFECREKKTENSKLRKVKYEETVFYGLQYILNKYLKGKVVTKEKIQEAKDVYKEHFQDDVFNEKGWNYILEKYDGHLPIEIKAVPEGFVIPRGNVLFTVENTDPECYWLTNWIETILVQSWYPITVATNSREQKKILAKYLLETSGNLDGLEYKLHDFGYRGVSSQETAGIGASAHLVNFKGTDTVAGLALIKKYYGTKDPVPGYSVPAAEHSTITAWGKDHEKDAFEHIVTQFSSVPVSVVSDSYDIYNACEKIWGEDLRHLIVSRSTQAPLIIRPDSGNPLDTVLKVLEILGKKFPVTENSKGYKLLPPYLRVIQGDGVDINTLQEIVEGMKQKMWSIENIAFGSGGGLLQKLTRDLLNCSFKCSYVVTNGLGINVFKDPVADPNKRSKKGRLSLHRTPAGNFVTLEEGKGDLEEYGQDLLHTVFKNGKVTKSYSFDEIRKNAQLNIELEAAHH
# PARP1 [11] = biological target: T1, PARP1; assay: PARP1 enzymatic inhibition assay (ELISA, chemiluminescence); format: biochemical
# MDA-MB-468 cells [12] = assay: Annexin V-FITC/PI apoptosis assay (flow cytometry); format: cell-based; conditions: 72 h
# Method: To investigate whether DDY02 induced apoptosis in MDA-MB-468 cells, we performed the annexin V/PI double staining assay, and the staining results were analyzed by flow cytometry, dividing the results into four quadrants (Q1~Q4). In this representation, Q1 represents necrosis, Q2 represents late apoptosis, Q3 represents early apoptosis, and Q4 represents living cells.
# The Annexin V-FITC/PI cell apoptosis detection kit (KeyGen Biotech, Nanjing, China) was employed for the analysis of cell apoptosis. MDA-MB-468 cells (5 × 10^5 cells/mL) were seeded in six-well plates and treated with compounds at corresponding concentrations for 72 h. Subsequently, MDA-MB-468 cells were harvested and incubated with 5 μL of Annexin V-FITC and 5 μL of propidium iodide (PI) in the dark for 15 min at room temperature. Apoptosis data were assessed using flow cytometry (Accuri C6 Plus, BD Bioscience, San Jose, CA, USA).
# T1 sequence (P09874 whole entry): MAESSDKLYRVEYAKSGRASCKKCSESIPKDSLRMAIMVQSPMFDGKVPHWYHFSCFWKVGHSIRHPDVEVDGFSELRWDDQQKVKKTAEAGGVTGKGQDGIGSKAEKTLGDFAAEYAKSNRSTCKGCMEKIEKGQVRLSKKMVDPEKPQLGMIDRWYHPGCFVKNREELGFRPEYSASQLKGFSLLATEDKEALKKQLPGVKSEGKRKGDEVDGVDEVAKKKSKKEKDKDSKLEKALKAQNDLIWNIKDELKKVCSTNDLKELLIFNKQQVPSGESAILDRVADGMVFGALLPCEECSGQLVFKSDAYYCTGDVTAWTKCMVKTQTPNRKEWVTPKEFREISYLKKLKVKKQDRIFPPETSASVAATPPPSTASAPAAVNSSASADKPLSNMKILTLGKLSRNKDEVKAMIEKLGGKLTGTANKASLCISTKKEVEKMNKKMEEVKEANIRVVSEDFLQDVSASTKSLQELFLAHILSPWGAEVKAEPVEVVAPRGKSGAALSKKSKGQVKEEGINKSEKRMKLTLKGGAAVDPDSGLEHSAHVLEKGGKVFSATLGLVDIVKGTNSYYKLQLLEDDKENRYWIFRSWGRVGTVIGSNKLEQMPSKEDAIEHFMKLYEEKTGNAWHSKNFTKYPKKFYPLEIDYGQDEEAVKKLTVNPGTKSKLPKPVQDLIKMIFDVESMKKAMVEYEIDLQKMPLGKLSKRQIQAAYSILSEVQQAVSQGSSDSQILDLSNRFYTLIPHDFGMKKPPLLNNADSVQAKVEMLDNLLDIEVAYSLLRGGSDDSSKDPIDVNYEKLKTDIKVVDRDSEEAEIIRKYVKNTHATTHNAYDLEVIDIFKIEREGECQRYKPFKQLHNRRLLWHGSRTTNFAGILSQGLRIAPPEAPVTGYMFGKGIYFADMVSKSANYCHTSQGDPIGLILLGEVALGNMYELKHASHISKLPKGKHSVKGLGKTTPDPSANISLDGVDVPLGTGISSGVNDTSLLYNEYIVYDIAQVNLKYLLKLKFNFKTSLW
Compound,inhibitory effect on cell migration (MDA-MB-468 cells [2]; 1 μM),IC50 (MCF-7),IC50 (MDA-MB-231),IC50 at 72 h [3],viability at 3 µM (MCF-10A),selectivity of cytotoxic activity between breast cancer cells and normal cells (MCF-10A) (MCF-10A),"cellular NAD levels (MDA-MB-468 cells [4]; 24 h, 1 μM)",IC50 (MDA-MB-468),BCL2 expression (MDA-MB-468 cells [5]; 1 μM),cytotoxic effects after preincubation with NMN (MDA-MB-468 cells [6]),accumulation of γ-H2AX (MDA-MB-468 cells [7]; 1 μM),also measured
NC(=O)c1ccccc1OCc1ccc(F)c(C(=O)N2CCN(C(=O)C3CCCC3)CC2)c1 [Compound 16],–,–,–,–,–,–,–,–,–,–,–,IC50 (PARP1 [1]): 0.061 µM
"O=C(c1cc(Cc2n[nH]c(=O)c3ccccc23)ccc1F)N1CCN(C(=O)C2CC2)CC1 [Olaparib, reference compound]",most robust inhibitory effect,8.68 ± 0.81 µM,6.74 ± 0.08 µM,9.61 ± 0.77 µM,91.8 ± 1.78%,no selectivity,did not alter intracellular NAD levels compared to the control,6.19 ± 0.09 µM,significantly inhibited the expression of the BCL2 protein,–,–,–
"O=C(/C=C/c1cccnc1)NCCCCC1CCN(C(=O)c2ccccc2)CC1 [FK866, reference compound]",weakest inhibitory activity,5.8 ± 0.86 µM,3.83 ± 0.12 µM,4.41 ± 0.22 µM,65.49 ± 0.41%,–,–,4.01 ± 0.21 µM,no effect on the expression of BCL2,reversed the cytotoxic effects,promoted the accumulation of γ-H2AX,–
"O=C(NCc1cccnc1)Nc1ccc(S(=O)(=O)N2CCN(C(=O)c3cc(Cc4n[nH]c(=O)c5ccccc45)ccc3F)CC2)cc1 [DDY02, 1-(4-((4-(2-Fluoro-5-((4-oxo-3,4-dihydrophthalazin-1-yl)methyl)benzoyl)piperazin-1-yl)sulfonyl)phenyl)-3-(pyridin-3-ylmethyl)urea]",slightly less pronounced inhibitory effect,7.61 ± 0.14 µM,10.4 ± 0.16 µM,5.31 ± 0.12 µM,70.3 ± 1.06%,no selectivity,marginally less potent than FK866,4.43 ± 0.04 µM,–,reversed the cytotoxic effects,most substantial effect,"colony formation (MDA-MB-468 cells [8]; 1 μM): more potent ability to inhibit colony formation compared to Olaparib, albeit slightly less effective than FK866; colony formation (MDA-MB-468 cells [8]; several concentrations): dose-dependent suppression of colony formation; inhibitory effect on cell migration (MDA-MB-468 cells [2]; 3 μM): further augmented; melting point: 197 to 198 °C; DNA damage (comet assay) (MDA-MB-468 cells [9]): increased DNA damage in a concentration-dependent manner; cell cycle distribution (MDA-MB-468 cells [10]): dose-dependent G1-phase cell cycle arrest; accumulation of γ-H2AX (MDA-MB-468 cells [7]; several concentrations): dose-dependent accumulation of γ-H2AX; IC50 (NAMPT): 0.01 ± 0.003 µM; cellular NAD levels (MDA-MB-468 cells [4]; 24 h post-treatment, several concentrations): reduced cellular NAD levels in a dose-dependent manner; IC50 (PARP1 [11]; mean ± SD of at least two independent experiments in duplicate): 0.05 ± 0.01 µM; fold decrease in inhibitory capacity against PARP1 compared to DDY01 (PARP1 [11]; ratio of IC50 values): 5.5 fold; percentage of apoptotic cells (Q2 + Q3) (MDA-MB-468 cells [12]; 0.3 µM): 13.34%; levels of apoptosis (comparison) (MDA-MB-468 cells [12]; 1 μM): higher levels of apoptosis compared to Olaparib and FK866 alone; percentage of apoptotic cells (Q2 + Q3) (MDA-MB-468 cells [12]; 1 μM): 21.20%; percentage of apoptotic cells (Q2 + Q3) (MDA-MB-468 cells [12]; 3 µM): 48.3%; BCL2 expression (MDA-MB-468 cells [5]; several concentrations): inhibited BCL2 expression in a dose-dependent manner"
